Assay: Agilent ZORBAX 300 SB-C18, 150 × 1 mm, 3.5 µm; A: water + 0.01% heptafluorobutyric acid; B: acetonitrile + 0.01% heptafluorobutyric acid; gradient (min/%B) 0/0 100/90
Conditions: stereoisomer not certain
Work on `CN1CCOC(c2ccccc2)c2ccccc2C1` (stereo unspecified) yielded an LC retention time of 10.1 min.
`Cc1cccc[n+]1CC(=O)c1ccccc1` gave an LC retention time of 8.36 min.
For `CC(C)N1CCNCC1`, the LC retention time was 6.94 min.
With `c1ccc(N2CCN(c3ccccc3)C2c2cccnc2)cc1` the LC retention time was 13 min.
`Nc1cccnc1N` showed an LC retention time of 6.18 min.
`COc1cc(CCN)cc(OC)c1OC` showed an LC retention time of 8.22 min.
For `CCOC(=O)C(=CNc1ccccc1N)C(=O)OCC`, the LC retention time was 12.8 min.
In the case of `NC(CO)c1ccccc1` (stereo unspecified), the LC retention time is reported as 7.02 min.
Compound `CC1CCCN1` (stereo unspecified) has an LC retention time of 5.96 min.
For `NC(=O)c1ccccc1NC(=O)Cn1cnc2ccccc2c1=O`, the LC retention time was 9.05 min.
For `COc1ccccc1-n1c(=O)[nH][nH]c1=O`, the LC retention time was 6.75 min.
Work on `Cc1cc(C)c2c(=O)n(CC(=O)NC(C)CCc3ccccc3)c(=O)n(-c3ccccc3)c2n1` (stereo unspecified) yielded an LC retention time of 15.7 min.
With `O=C(Nc1cccnc1)c1ccccn1` the LC retention time was 8.14 min.
Work on `CC(=O)Oc1ccc2c(c1)cc(C)n2C` yielded an LC retention time of 13.3 min.
Work on `CC(C)(C)NCC(O)COc1cccc2c1CC(O)C(O)C2` (stereo unspecified) yielded an LC retention time of 8.31 min.
Compound `CC(=O)C1(O)CCC2C3CC(C)C4=CC(=O)CCC4(C)C3CCC21C` (stereo unspecified) has an LC retention time of 15.2 min.
Compound `Nc1cc(-c2ccc(C(=O)c3ccccc3)c(N)c2)ccc1C(=O)c1ccccc1` has an LC retention time of 16.4 min.
`O=C(Nc1ccccn1)c1cccc(N2C(=O)CCC2=O)c1` gave an LC retention time of 8.59 min.
In the case of `CC1CNC(C)CN1` (stereo unspecified), the LC retention time is reported as 6.62 min.
For `CN(C)CCCN(C)C`, the LC retention time was 7.19 min.
In the case of `CN1CC(=O)N(c2cccc(N)c2)C1=O`, the LC retention time is reported as 6.98 min.
Compound `Cc1cc(N)cc(C)c1O` has an LC retention time of 6.91 min.
`CCOc1nc(N(c2ccccc2)c2ccccc2)[nH]c(=O)n1` showed an LC retention time of 11.7 min.
Work on `CCCNC1CCN(C(C)=O)CC1` yielded an LC retention time of 6.77 min.
In the case of `O=C(O)CC(C(=O)O)c1c[nH]c2ccccc12` (stereo unspecified), the LC retention time is reported as 8.46 min.
Work on `c1coc(C2NCCc3ccccc32)c1` (stereo unspecified) yielded an LC retention time of 8.65 min.
`C=CCC1(CC=C)CNCCN1` gave an LC retention time of 7.33 min.
Work on `CCCCCC(N)=O` yielded an LC retention time of 8.31 min.
Work on `O=c1[nH][nH]c(=O)c2nccnc12` yielded an LC retention time of 3.97 min.
In the case of `Cc1[nH]c2ccccc2c1CCNC(N)=O`, the LC retention time is reported as 9.08 min.
With `O=Cc1ccc[nH]1` the LC retention time was 6.97 min.
`c1ccc2c(c1)ccc1cccnc12` gave an LC retention time of 12.7 min.
`Cc1ccc(C=NNC(=O)C(=O)NC(C)C)o1` showed an LC retention time of 9.79 min.
Work on `S=C(Nc1cccnc1)NC1CCCc2ccccc21` (stereo unspecified) yielded an LC retention time of 11 min.
`CCCCCC[N+](C)(C)C` gave an LC retention time of 8.47 min.
`COc1ccc2c(c1)C(C)N1C(=O)c3cc(OC)c(OC)cc3C1O2` (stereo unspecified) gave an LC retention time of 13.1 min.
`CC(C)(C)c1ccc(NC(=O)NCc2ccco2)cc1` showed an LC retention time of 14.5 min.
With `Cc1cccc2c1N(C)C(=O)C2=O` the LC retention time was 10.1 min.
In the case of `Nc1ccc(N2CCCC2=O)cc1`, the LC retention time is reported as 7.31 min.
Work on `Nn1cnn(Cc2ccccc2)c1=S` yielded an LC retention time of 10.3 min.
Work on `CC1(C)CC(NC(=O)c2ccccc2C(=O)NC2CC(C)(C)NC(C)(C)C2)CC(C)(C)N1` yielded an LC retention time of 7.61 min.
In the case of `Cc1ccc(C(=O)O)c(=O)[nH]1`, the LC retention time is reported as 6.43 min.
Work on `CCNc1cccc(C)c1` yielded an LC retention time of 8.38 min.
`COC(=O)Cn1c(=O)c(-c2ccccc2)nc2ccccc21` gave an LC retention time of 14.3 min.
For `Nc1cc(=O)[nH]c(=S)[nH]1`, the LC retention time was 2.25 min.
`O=C(O)c1ccc2[nH]c3c(c2c1)CCCC3` showed an LC retention time of 11.6 min.
`O=C(c1cccc(C(=O)N(Cc2ccccc2)c2ccccn2)c1)N(Cc1ccccc1)c1ccccn1` showed an LC retention time of 15.4 min.
`Nc1ccc2c(c1)C(=O)N(c1ccc3ccccc3c1)C2=O` showed an LC retention time of 13.6 min.
Compound `Cc1ccc(-c2ccc(CCC(=O)O)n2CC(=O)O)cc1` has an LC retention time of 11.5 min.
`COCc1cc(=O)n2[nH]c(NC(C)=O)nc2n1` showed an LC retention time of 6.11 min.
In the case of `CC(C)Cc1nc2ccccc2n1CC(C)C`, the LC retention time is reported as 10.9 min.
Compound `COc1cc(C)c(NC(C)=O)c(C)c1` has an LC retention time of 8.85 min.
In the case of `S=C1NCN(CCC2=CCCCC2)CN1`, the LC retention time is reported as 10.2 min.
`CC(=O)c1[nH]c2c(c1C)C(=O)CCC2` showed an LC retention time of 8.48 min.
`O=C1CCCc2c1[nH]c1ccc(C3CCCCC3)cc21` gave an LC retention time of 18.7 min.
`O=CN1CCCCC1` showed an LC retention time of 7.47 min.
In the case of `Cn1cnc2c1c(=O)[nH]c(=O)n2C`, the LC retention time is reported as 6.5 min.
Compound `CCOC(=O)CC(=O)Nc1ccc(C(=O)OC)cc1` has an LC retention time of 11.1 min.
For `CC(=O)c1c[nH]c2ccccc12`, the LC retention time was 9.25 min.
Compound `CN1Cc2ccccc2CC1C(=O)O` (stereo unspecified) has an LC retention time of 6.42 min.
Work on `Nc1ccc(C(O)(c2ccc(N)cc2)c2ccc(N)cc2)cc1` yielded an LC retention time of 9.07 min.
`COc1ccc(NC(=O)c2ccc(C)cc2)c(OC)c1` showed an LC retention time of 14.2 min.
With `CC(=O)Oc1ccc(C(=O)N2CCc3ccccc32)cc1` the LC retention time was 13.2 min.
In the case of `O=C(NN=Cc1ccc(OCc2ccccc2)cc1)c1ccc(-c2ccccc2)cc1`, the LC retention time is reported as 16.9 min.
Work on `Cc1c(C(=O)O)[nH]c(=O)[nH]c1=O` yielded an LC retention time of 1.56 min.
Compound `Cc1cccc(C=NNC(=O)c2cc3ccccc3cc2O)c1` has an LC retention time of 14.9 min.
Compound `CCCN1CCC(=O)CC1` has an LC retention time of 6.66 min.
Compound `Nc1cccc(N2CCOCC2)c1` has an LC retention time of 7.53 min.
`Cc1ccc(NC(=O)c2c(C)[nH]c(C)c2C)c(C)c1` gave an LC retention time of 13.2 min.
In the case of `Cc1cc(C(=O)O)nc2ccccc12`, the LC retention time is reported as 5.5 min.
`N=C(N=C(N)N)N1CCSCC1` gave an LC retention time of 7.17 min.
Work on `COc1ccc2c3c1OC1C(=O)CCC4(O)C(C2)N(C)CCC314` (stereo unspecified) yielded an LC retention time of 8.39 min.
In the case of `NC(=O)c1cc2ccccc2o1`, the LC retention time is reported as 9.05 min.
For `CC1(C)CC(NC(=S)Nc2ccccc2)CC(C)(C)N1`, the LC retention time was 9 min.
In the case of `O=CC1CCN(Cc2ccccc2)CC1`, the LC retention time is reported as 7.84 min.
For `CC(C)(C)NCC(O)COc1nsnc1N1CCOCC1` (stereo unspecified), the LC retention time was 9.09 min.
Compound `Nc1ncnc(N)n1` has an LC retention time of 7.16 min.
Compound `CC(=O)c1ccc2c(c1)N(CCCN(C)C)c1ccccc1S2` has an LC retention time of 11.1 min.
With `CC1(C)CC(NC(=O)C(=O)NC2CC(C)(C)NC(C)(C)C2)CC(C)(C)N1` the LC retention time was 7.48 min.
Compound `COC(=O)c1[nH]c2ccccc2c1-n1cccc1` has an LC retention time of 14.3 min.
With `CC(O)CCN` (stereo unspecified) the LC retention time was 3.82 min.
With `Cc1ccc(C)n1-c1ccccc1CO` the LC retention time was 12.7 min.
Compound `CC1(C)CC(=O)c2cc3c(nc2C1)CC(C)(C)CC3=O` has an LC retention time of 13.2 min.
`CCCCc1ccc(NC(=O)c2ccc(OC(C)=O)cc2)cc1` showed an LC retention time of 16.5 min.
Work on `Cc1cc(C)nc(Nc2n[nH]c(C)n2)n1` yielded an LC retention time of 8.05 min.
`O=C(CCN1C(=O)c2ccccc2C1=O)Nc1cccc(C(=O)O)c1` gave an LC retention time of 10.2 min.
Work on `CC(NCCc1ccc(O)cc1)C(O)c1ccc(O)cc1` (stereo unspecified) yielded an LC retention time of 8.48 min.
With `CC(=O)CNC(C)(C)C` the LC retention time was 6.35 min.
With `CC(C)CN(CC(C)C)CC(C)C` the LC retention time was 9.7 min.
`O=C(C=Cc1ccccc1O)c1ccccc1O` gave an LC retention time of 14.5 min.
Work on `CNCCc1ccncc1` yielded an LC retention time of 6.72 min.
Compound `Cc1ccc(-c2noc(-c3ccc(C)cc3)c2C)cc1` has an LC retention time of 19.3 min.
For `CN1CCC2(CC1)NC(=O)N(c1ccccc1)N2`, the LC retention time was 7.95 min.
`C=CCN1CCC23c4c5ccc(O)c4OC2C(=O)CCC3(O)C1C5` (stereo unspecified) gave an LC retention time of 8.17 min.
For `Cc1cnc2c(ccc3c(C)c(C)cnc32)c1C`, the LC retention time was 9.85 min.
In the case of `CCNc1ccccc1C(=O)O`, the LC retention time is reported as 10.8 min.
Work on `CCCCCCCC(N)=O` yielded an LC retention time of 11 min.
Work on `O=C(Nc1ccc(Nc2ccccc2)cc1)C(c1ccccc1)c1ccccc1` yielded an LC retention time of 17.1 min.
In the case of `CN(C)C(CN)c1ccco1` (stereo unspecified), the LC retention time is reported as 7.02 min.
Work on `CCN(CC)CCC(O)(c1ccccc1)C1CCCCC1` (stereo unspecified) yielded an LC retention time of 11.3 min.
In the case of `NC1CCCCCC1`, the LC retention time is reported as 7.85 min.
`COc1ccc(CN2CCC(N)CC2)cc1OC` showed an LC retention time of 7.7 min.
Compound `Oc1ccccc1N1CCCCC1` has an LC retention time of 7.89 min.
`COC(=O)c1ccc2ccccc2n1` gave an LC retention time of 10.4 min.
`C#CC(C)(C)NC(=O)NC(C)(C)C#C` gave an LC retention time of 9.95 min.
In the case of `Cc1[nH]c(C)c(C(=O)Nc2ccccc2)c1C`, the LC retention time is reported as 11.9 min.
Work on `CC1CCN(C(=O)c2ccc(N)cc2)CC1` yielded an LC retention time of 9.82 min.
`CC(C)CNCC(C)C` showed an LC retention time of 8.04 min.
In the case of `c1ccc(-c2cnc(-c3cccc4ccccc34)o2)cc1`, the LC retention time is reported as 19.4 min.
With `CCn1c2ccccc2c2cc(C=NNC(=O)c3ccc(C)cc3)ccc21` the LC retention time was 15.7 min.
`COc1c(C)cccc1C(=O)NC(CC(C)C)C(N)=O` (stereo unspecified) gave an LC retention time of 11.2 min.
In the case of `S=C(NCCc1c[nH]c2ccccc12)Nc1ccccc1`, the LC retention time is reported as 13.2 min.
For `COc1ccc(OCc2nc3ccccc3nc2C)cc1`, the LC retention time was 14.1 min.
Compound `CCN(CC)CCN(CC)CC` has an LC retention time of 7.19 min.
With `CN(C)C(=O)c1ccc(N=CNc2ccc(C(=O)N(C)C)cc2)cc1` the LC retention time was 9.51 min.
In the case of `OCCNC1CCCCC1`, the LC retention time is reported as 7.24 min.
Compound `Cc1ccc(N2CC(C(=O)O)CC2=O)cc1C` (stereo unspecified) has an LC retention time of 10.2 min.
Compound `COc1ccc(N2CC(C(=O)N3CCC(Cc4ccccc4)CC3)CC2=O)cc1` (stereo unspecified) has an LC retention time of 14.5 min.
Compound `CC1NCCC2(O)CCCCC12` (stereo unspecified) has an LC retention time of 7.09 min.
For `CC(=O)N1C(=O)N(C(C)=O)C(O)C1O` (stereo unspecified), the LC retention time was 6.42 min.
In the case of `CN(C)c1ccc(C(O)c2ccc(N(C)C)cc2)cc1`, the LC retention time is reported as 9.42 min.
With `CCN1CCCCC1` the LC retention time was 6.52 min.
`CN(N)c1nc(N2CCCC2)nc(N2CCCC2)n1` showed an LC retention time of 10.3 min.
`CCCCc1ccc(NC(=O)Cc2ccc(OC)c(OC)c2)cc1` showed an LC retention time of 15.6 min.
Work on `CC1(c2ccccc2)OCOC1=CC[N+](C)(C)C` (stereo unspecified) yielded an LC retention time of 9.45 min.
Work on `Cc1[nH]c2ccccc2c1Cc1nc2ccccc2[nH]1` yielded an LC retention time of 9.93 min.
In the case of `NCc1ccc2[nH]c(=O)[nH]c2c1`, the LC retention time is reported as 6.29 min.
Compound `Nc1ccc[nH]c1=O` has an LC retention time of 2.98 min.
In the case of `CC(C)(C)c1ccc(C(CC(=O)O)NC(=O)c2ccccc2)cc1` (stereo unspecified), the LC retention time is reported as 13.7 min.
With `CCOC(=O)C1C(C)=NC(=O)NC1C` (stereo unspecified) the LC retention time was 8.75 min.
In the case of `Cc1nc(=S)c2ccccc2[nH]1`, the LC retention time is reported as 9.45 min.

Source: the RepoRT retention time repository
